Measured values taken from patent US12622965B2, “Therapeutical tools and methods using temperature-sensitive receptors for treating blindness” (FRIEDRICH MIESCHER INSTITUTE FOR BIOMEDICAL RESEARCH, priority 2020, dated 2026).

What was measured:
[1] = test system: cone photoreceptors of the rd1 mouse; test: AAV transduction of rd1 mouse cones after subretinal injection, quantified by immunofluorescence and confocal imaging; assay type: in vivo
Excerpt: The inventors targeted rTRPV1 to cone photoreceptors of the Pde6brd1 (known as rd1) mouse via subretinal injection of adeno-associated virus (AAV) and a photoreceptor-specific promoter (mCar) to restrict expression. Rd1 mice have severe photoreceptor degeneration with complete loss of rod and dysfunctional light-insensitive cone photoreceptors by four weeks of age postnatal (P28). 55±10% of rd1 cones expressed rTRPV1 in the cell membrane (n=12,813 cones mm−2, n=7042 TRPV1 positive cones mm−2, mean±s.d). 98±1.6% of rat TRPV1 positive cells were cones (n=7216 TRPV1 positive cells mm−2, n=7042 TRPV1 positive cones mm−2, mean±s.d).
Ocular injections to deliver AAVs expressing TRP variants and/or functionalized nanorods were performed on 4 week old mice anesthetized with 2.5% isoflurane. A small incision was made with a sharp 30 gauge needle at the nasal corneo-scleral junction and AAV and/or nanorods were co-injected through this incision into the subretinal space using a blunt 5 μL Hamilton syringe held in a micromanipulator. For cone photoreceptor activity monitoring, cone specific AAV-ProA7-GCaMP6s (11) was co-injected subretinally with rTRPV1 and/or nanorods. A maximum volume of 2.5 μL was administered per eye. For primary visual cortex activity monitoring, AAV-pCAG-FLEX2-tTA2 was delivered by intravenous retro-orbital injection as previously described by D. Hillier et al. Nat Neurosci 20, 960-968 (2017) 2 weeks after initial ocular injection of rTRPV1 and nanorods. […]
A Zeiss LSM 700 laser scanning confocal microscope was used to acquire images of antibody stained cells and tissues with an EC Plan-Neofluar 40×/1.30 oil M27 objective at up to 4 excitation laser lines according to secondary antibody specification. Expression was assessed from 1024×1024 pixel images in a z-stack with 0.75 μm steps. […] AAV transduction was quantified from retinal wholemounts. […] Quantification was performed separately for outer nuclear layer, inner nuclear layer and ganglion cell layer.

[2] = test system: human retina (ONL, INL, GCL cells); test: two-photon acousto-optic calcium imaging of NIR responses in ex vivo human retina; assay type: cell-based
Excerpt: High-speed three-dimensional acousto-optic calcium imaging of neuronal network activity permits observation of response propagation from photoreceptors through the retina. To detect NIR light driven responses in the human retina, the inventors deposited nanorods (Abs 915 nm) over the photoreceptor side of the retina and performed two-photon calcium imaging of individual cells in the outer nuclear layer (ONL), which hosts photoreceptors, the inner nuclear layer (INL), which hosts horizontal, bipolar and amacrine cells, and the ganglion cell layer (GCL) which hosts ganglion and amacrine cells. To record calcium signals, the fluorescent calcium dye Oregon Green 488 BAPTA-1 (OGB-1) was electroporated into the cells. […] In cells of the INL and GCL layers, bidirectional changes in the calcium signal indicate activation of excitatory and inhibitory retinal pathways. More cells responded in the GCL than in the ONL, reflecting convergent retinal circuit organization (Chi Squared Test, P=0.0006; GCL, n=41 responding neurons, n=83 total neurons, 49.4%; ONL, n=16 responding photoreceptors, n=74 total photoreceptors, 21.6%). There was no significant difference in number of NIR light responding cells between INL and GCL (Chi Squared Test, P=0.89; INL, n=46 responding neurons, n=93 total neurons, 49.5%).
Human retinal tissue was obtained after corneal tissue harvest from adult multi-organ donors with no reported history of eye disease, n=2 eyes from n=2 donors. After cornea isolation, the iris, lens, and vitreous were removed and the retina was submerged in flowing Ames' medium (Sigma, A1420) saturated with 95% O2 and 5% CO2. […] Samples used for tissue culture were of mid-peripheral origin, midway between the fovea and the anterior retinal border. For organotypic retinal culture, 4×4 mm retinal pieces were isolated and placed photoreceptor-side-up on polycarbonate membranes inserts (Corning, 3412). The cultures were maintained at 37° C. and 5% CO2 in DMEM/F12 medium (Thermo Fisher Scientific), supplemented with 0.1% bovine serum albumin (BSA), 10 μM O-acetyl-L-carnitine hydrochloride, 1 mM fumaric acid, 0.5 mM galactose, 1 mM glucose, 0.5 mM glycine, 10 mM HEPES, 0.05 mM mannose, 13 mM sodium bicarbonate, 3 mM taurine, 0.1 mM putrescine dihydrochloride, 0.35 μM retinol, 0.3 μM retinyl acetate, 0.2 μM (+)-α-tocopherol, 0.5 mM ascorbic acid, 0.05 μM sodium selenite, 0.02 μM hydrocortisone, 0.02 μM progesterone, 1 μM insulin, 0.003 μM 3,3′,5-triiodo-L-thyronine, 2 000 U penicillin and 2 mg streptomycin (Sigma). For AAV infection, 40 μL of virus was applied per retinal explant 4-5 days after plating. The culture medium was renewed every 48 hours. Light responses were recorded from samples 8 weeks post-mortem. […]

[3] = AAV, mCar promoter, subretinal injection, mean±s.d
[4] = nanorods (Abs 915 nm) on photoreceptor side, 8 weeks post-mortem

Substance: TRPV1.465-6x-His: rat TRPV1 channel with 6x-His epitope tag inserted in the first extracellular loop after amino acid 465; delivered by AAV
- channel (TRPV1 or Ollas) positive cells that were cones [1, 3]: 98±1.6%
- rd1 cones expressing the channel in the cell membrane [1, 3]: 55±10%
- expression of the 6x-His tag in TRPV1 positive cones ([1]; rd1 mouse): All TRPV1 positive cones expressed the 6x-His tag
- NIR light responding cells in the GCL [2, 4]: 49.4%
- NIR light responding cells in the INL [2, 4]: 49.5%
- NIR light responding photoreceptors in the ONL [2, 4]: 21.6%
- NIR light-evoked activation in retinal explants ([2]; rTRPV1 transduced explants (n=3), nanorods (Abs 915 nm)): NIR light-evoked activation could be detected
